Like-named read-outs stand apart in the source and are kept apart here. Blank lines part the entries; values can stand above or below the compound they belong to.
Legend:
[1] = Storage stability of dioxetane formulations measured by chemiluminescent enzyme assay; format: physicochemical; conditions: for % of Dioxetane Remaining: 0.5 mM dioxetane formulation pH 10, temperature not given (FIG. 5: 25° C.)
Description: Storage stability is related to the rate of decomposition of the dioxetane due to spontaneous reaction and is an intrinsic property. Decomposition of triggerable dioxetanes can also be induced by the presence of trace quantities of agents which catalyze the removal of a protecting group and thus initiate the decomposition. Storage stability of a dioxetane can be assessed by measuring the quantity of dioxetane present in a known sample at periodic intervals. The measurement can take any form known which measures a property relatable to the quantity of dioxetane. Techniques such as spectrophotometry, NMR spectrometry and the like are exemplary. A convenient means is to measure the amount of light produced by reacting a known quantity of dioxetane with a triggering agent under a standard set of conditions. A decrease in the amount or intensity of light emitted signals a loss of dioxetane compound.
A fluoro-substituted analog of dioxetane 1, identified as 3, a chloro-substituted analog 4 and a methyl-substituted analog 5 have been prepared and their storage stability evaluated over several weeks. Storage stability of a solution of 1 was measured for comparison. All solutions were prepared with the same composition, differing only in the identity of the dioxetane. Stability was evaluated by chemiluminescent enzyme assay with a fixed volume of test solution and fixed limiting amount of alkaline phosphatase and measuring the plateau light intensity at 25° C.
Formulations comprising 0.1 mg/mL Enhancer A, 0.88 mM Mg^+2 , 0.2 M 2-amino-2-methyl-1-propanol, pH 10, 0.1% Triton X-100 and 0.5 mM dioxetane 1, 3, 4 and 5, respectively, were prepared and stored in opaque polyethylene bottles at 4° C., 25° C. and 40° C. Twenty four 100 μL aliquots from each bottle were pipetted into the wells of a 96 well plate and the solutions incubated at 37° C. Into each well 10 μL solutions containing 8×10^−17 moles of AP were injected and light intensity integrated over five hours. Data are the average of all 24 wells. The experiment was repeated at the indicated time intervals for each dioxetane. The results in FIG. 5 show the comparative stability of the three formulations at 25° C.

[2] = Enhancement of luminescent signal of a reagent based on dioxetane 1 by enhancers and fluorescers; conditions: for Factor of increase of luminescent signal: reagent based on dioxetane 1; for Enhancement Factor: 1 mg/mL Enhancer A
Description: As part of the optimization of a reagent based on dioxetane 1, a number of enhancer materials was examined. At pH 9.6, Enhancer A (1-trioctylphosphoniummethyl-4-tributylphosphoniummethylbenzene dichloride) increased the luminescent signal by a factor of 6.2, and Enhancer B (poly(vinylbenzyltributylphosphonium chloride)) increased the signal by a factor of 19.7. At pH 10.0, Enhancer A increased the signal by a factor of 4.8, and Enhancer B increased the signal by a factor of 18.9.
Tables 2 and 3 show the extent of enhancement by pyranine and fluorescein, respectively, in the presence of 1 mg/mL of Enhancer A.

[3] = Reagent carryover in capsule chemistry analysis system (TECHNICON IMMUNO 1 TSH method, luminescence detection); conditions: R3 reagent with 0.2 mM CSPD; 3 mM pyranine omitted from test N only
Experimental: The experiments described below were performed on a prototype capsule chemistry analysis system essentially as described by Kumar et al in U.S. Pat. No. 5,399,497, with the detection system configured to measure light emission (luminescence). The method and apparatus comprises feeding a stream of fluid segments through a Teflon tube, where the tube has an isolating layer of fluorocarbon oil on the inner surface. Sample and reagents are aspirated into this tube, and the resulting liquid segments are moved through the tube. […] The detection system was comprised of a photon counter and a fiber optic read head, in which the fibers were radially arranged around the Teflon tube to maximize the efficiency of light collection.
The TECHNICON IMMUNO 1® TSH method (Bayer Corporation, Tarrytown, N.Y., USA) was used as a representative immunoassay method for the testing of luminogenic reagents. […] The particles were then exposed to the luminogenic reagent, which contained a substrate for ALP, and luminescence was measured.
R1 (10.4 μl of serum-based solution containing fluorescein-labeled antibody to TSH), R2 (10.4 μl of serum-based solution containing antibody to TSH conjugated with ALP) and S (7.2 μl of serum sample) were aspirated into the second segment. […] The fifth segment was R3, of the composition described above, with the key elements being the luminogenic substrate and the luminescence enhancer. […]

alkaline phosphatase = test: Performance of detection reagent in assays for AP in the capsule chemistry test system; format: biochemical; conditions: fluorescein-labeled alkaline phosphatase conjugate captured onto magnetic particles
Experimental: The experiments described below were performed on a prototype capsule chemistry analysis system essentially as described by Kumar et al in U.S. Pat. No. 5,399,497, with the detection system configured to measure light emission (luminescence). The method and apparatus comprises feeding a stream of fluid segments through a Teflon tube, where the tube has an isolating layer of fluorocarbon oil on the inner surface. Sample and reagents are aspirated into this tube, and the resulting liquid segments are moved through the tube. Separation steps and washing steps which are required by heterogeneous immunoassay methods were facilitated by means of magnets, which transferred magnetic particles from one aqueous segment to another. The detection system was comprised of a photon counter and a fiber optic read head, in which the fibers were radially arranged around the Teflon tube to maximize the efficiency of light collection.
A detection reagent incorporating dioxetane 3 was evaluated in a test system as described in Example 7. The test material was a fluorescein-labeled alkaline phosphatase conjugate which was captured onto the magnetic particles.

[4] = aqueous solutions, 25° C., four weeks

Compound: O=C([O-])C(CCOC1(c2cccc(OP(=O)([O-])[O-])c2)OOC12C1CC3CC(C1)CC2C3)C(=O)[O-].[Na+].[Na+].[Na+].[Na+] (centres unmarked) [Dioxetane 1]
% of Dioxetane Remaining ([1]; 0 wks): 100%
% of Dioxetane Remaining ([1]; 1 wk): 94.8%
% of Dioxetane Remaining ([1]; 2 wks): 91.1%
% of Dioxetane Remaining ([1]; 3 wks): 87.5%
% of Dioxetane Remaining ([1]; 4 wks): 84.1%
% of Dioxetane Remaining ([1]; 5 wks): 81.8%
% of Dioxetane Remaining ([1]; 6 wks): 80.7%
% of Dioxetane Remaining ([1]; 9 wks): 76.5%
Decomposition on storage (in words) ([1]; alkaline buffer, 25° C., two weeks): significant decomposition
Storage stability compared with other dioxetanes (in words) ([1]; aqueous buffer solutions, 25° C.): significantly less stable than a related compound, Lumigen PPD

Compound: CCCCCCCC[P+](CCCCCCCC)(CCCCCCCC)Cc1ccc(C[P+](CCCC)(CCCC)CCCC)cc1.[Cl-].[Cl-] [Enhancer A, 1-trioctylphosphoniummethyl-4-tributylphosphoniummethylbenzene dichloride]
Factor of increase of luminescent signal ([2]; pH 9.6): 6.2
Factor of increase of luminescent signal ([2]; pH 10.0): 4.8

Compound: O=S(=O)([O-])c1cc(O)c2ccc3c(S(=O)(=O)[O-])cc(S(=O)(=O)[O-])c4ccc1c2c34.[Na+].[Na+].[Na+] [Pyranine]
Factor by which signal in test N was lower when the fluorescent enhancer was omitted [3]: approximately 10
Enhancement Factor ([2]; 0.01 mM fluorescer): 3.7
Enhancement Factor ([2]; 0.02 mM fluorescer): 7.3
Enhancement Factor ([2]; 0.03 mM fluorescer): 9.8
Enhancement Factor ([2]; 0.04 mM fluorescer): 12.2
Enhancement Factor ([2]; 0.05 mM fluorescer): 13.7
Enhancement by fluorescer alone ([2]; fluorescer 3 mM, without Enhancer A): about ten-fold

Storage stability compared with other dioxetanes (in words) [1]: worse than that of 1
Compound: [4-(3,3-biscarboxy)-3-chloropropoxy)-4-(3-phosphoryloxyphenyl)]spiro[1,2-dioxetane-3,2′-tricyclo [3.3.1.1^3,7]decane], tetrasodium salt [Dioxetane 4]

Compound: [4-(3,3-biscarboxy)-3-fluoropropoxy)-4-(3-phosphoryloxyphenyl)]spiro[1,2-dioxetane-3,2′-tricyclo [3.3.1.1^3,7]decane], tetrasodium salt [Dioxetane 3]
Decomposition on storage (in words) [1, 4]: essentially no decomposition
Assay performance (sensitivity, dynamic range, precision) in words (alkaline phosphatase): sensitivity, dynamic range and precision comparable to the results using dioxetane 1

Compound: [4-(3,3-biscarboxybutoxy)-4-(3-phosphoryloxyphenyl)]spiro[1,2-dioxetane-3,2′-tricyclo[3.3.1.1^3,7]-decane], tetrasodium salt [Dioxetane 5]
Decomposition on storage (in words) [1, 4]: essentially no decomposition

Reference: patent publication US6410751B1, “Water soluble tri-substituted 1, 2-dioxetane compounds having increased storage stability, synthetic processes and intermediates” (Lumigen, Inc., priority 1995, dated 2002)
